Assay results published in patent US5554640A, “Use of propanolamine derivatives as selective 5-HT1 antagonists” (Eli Lilly and Company, priority 1995, dated 1996).
“Also recorded” adds a separate entry of the source. Like-named read-outs stand apart in the source and are kept apart here.

Tests used:
β-adrenergic receptors = assay: Binding of 3H-dihydroalprenolol to β-adrenergic receptors, calf brain cortical membranes; set-up: species or system bovine (calf); conditions: inhibition of 2 nM 3H-dihydroalprenolol binding, 20° C, 20 minutes, pH 7.4, read-out: Beta IC50
Method: The compounds of this invention were evaluated in the following tests systems. Procedure for radioligand receptor assays--Male Sprague-Dawley rats weighing 110-150 g were decapitated and brains were immediately removed. Bovine brains were quickly removed from calf in the slaughterhouse. Cerebral cortices were dissected out at 4° C. and homogenized in 0.32M sucrose. After centrifugation at 1000×g for 10 minutes and then 17,000×g for 20 minutes, a crude synaptosomal fraction was sedimented. The pellet was suspended in 100 volumes of 50 mM tris-HCl buffered at pH 7.4, incubated at 37° C. for 10 minutes, and centrifuged at 50,000×g for 10 minutes. The process was repeated and the final pellet was suspended in ice-chilled 50 mM tris-HCl buffered at pH 7.4. […] Cortical membranes (500 μg protein) of calf brain were incubated at 20° C. for 20 minutes in 2 ml of medium containing […] tris-HCl buffered at pH 7.4; 2 nM 3H-dihydroalprenolol; and various concentrations of test compound. Binding was terminated by filtering samples through glass fiber (GFC) filters. […] Other conditions were as described for 3[…] binding.

[1] = molecular target: T1, serotonin-1A receptor (5-HT1A) (Rattus norvegicus, UniProt P19327); assay: biochemical; assay type: binding, rat (Sprague-Dawley); conditions: for Ratio Beta IC50 / 5-HT1A IC50: selectivity for 5-HT1A over beta receptor, Beta IC50 from 3H-dihydroalprenolol binding
T1 sequence (P19327 1-422): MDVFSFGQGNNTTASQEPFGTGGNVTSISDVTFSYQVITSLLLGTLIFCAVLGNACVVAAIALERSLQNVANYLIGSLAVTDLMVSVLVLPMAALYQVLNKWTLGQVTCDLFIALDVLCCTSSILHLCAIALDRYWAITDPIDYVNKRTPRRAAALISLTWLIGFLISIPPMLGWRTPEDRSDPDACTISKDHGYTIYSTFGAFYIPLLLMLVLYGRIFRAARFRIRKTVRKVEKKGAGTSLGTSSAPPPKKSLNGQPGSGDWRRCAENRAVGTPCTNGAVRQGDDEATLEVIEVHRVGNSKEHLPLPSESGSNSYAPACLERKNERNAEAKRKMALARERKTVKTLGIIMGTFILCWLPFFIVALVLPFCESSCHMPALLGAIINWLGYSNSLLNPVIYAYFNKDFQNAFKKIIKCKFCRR
Method: The compounds of this invention were evaluated in the following tests systems.
Procedure for radioligand receptor assays--Male Sprague-Dawley rats weighing 110-150 g were decapitated and brains were immediately removed. Bovine brains were quickly removed from calf in the slaughterhouse. Cerebral cortices were dissected out at 4° C. and homogenized in 0.32M sucrose. After centrifugation at 1000×g for 10 minutes and then 17,000×g for 20 minutes, a crude synaptosomal fraction was sedimented. The pellet was suspended in 100 volumes of 50 mM tris-HCl buffered at pH 7.4, incubated at 37° C. for 10 minutes, and centrifuged at 50,000×g for 10 minutes. The process was repeated and the final pellet was suspended in ice-chilled 50 mM tris-HCl buffered at pH 7.4.
Binding of ^3 H-8-hydroxy-2- (di-n-propylamino) tetralin(3H-80HDPAT) to serotonin-1A receptor was performed according to the method described by Wong et al., J. Neural Transm. , 71, 207 (1988). Cortical membranes (300 μg protein) isolated from rat brain were incubated at 28 C for 30 minutes in 2 ml of medium containing 50 mM tris-HCl buffered at pH 7.4; 10 μM pargyline; 0.6 mM ascorbic acid; 5 mM calcium chloride; 0.4 nM 3H-8OHDPAT; and various concentrations of test compound. Binding was terminated by filtering samples under reduced pressure through glass fiber (GFB) filters. The filters were washed twice with 5 ml of ice cold buffer and placed in scintillation vials with 10 ml of PCS (Amlersham/Searle) scintillation fluid. Radioactivity was measured with a liquid scintillation spectrometer. Specific binding of 3H-80HDPAT is defined as the difference of radioactivity bound in the absence and in the presence of 10 μM spiperone.

[2] = test system: 5-HT1A and 5-HT1B receptors; conditions: background knowledge; cited from earlier work
[3] = inhibition of 0.4 nM 3H-8OHDPAT binding, rat cortical membranes, 28 C, 30 minutes, pH 7.4

| IC50 (β-adrenergic receptors) [nM] | IC50 [1, 3] [nM] | Ratio Beta IC50 / 5-HT1A IC50 [1] | SMILES | IC50 [1] [nM] | antagonism of 5-HT1 receptors relative to β-block (in words) [2] |
| --- | --- | --- | --- | --- | --- |
| 225 | 16.8 | 15.2 | CC(C)(C)C(C)(C)NCC(O)COc1cccc2ccccc12 (stereo not drawn) [C(CH3)2 C(CH3)3] | – | – |
| 97.3 | 77 | 1.3 | CC(C)(C)NCC(O)COc1cccc2ccccc12 (stereo not drawn) [C(CH3)3] | – | – |
| 124 | 36.9 | 3.4 | CCCCNCC(O)COc1cccc2ccccc12 (stereo not drawn) [CH2 CH2 CH2 CH3] | – | – |
| 138 | 49 | 2.8 | OC(CNC1CCCC1)COc1cccc2ccccc12 (stereo not drawn) [(cyclopentyl)] | – | – |
| 264 | > 1000 | < 0.26 | OC(CN[C@H]1CC[C@H](c2ccccc2)CC1)COc1cccc2ccccc12 (stereo partly drawn) [(E-4-phenylcyclohexyl)] | – | – |
| – | – | – | CC(C)NCC(O)COc1cccc2[nH]ccc12 (stereo not drawn) [pindolol] | – | at concentrations far in excess of those shown to block the β-receptor; also recorded: not selective agents for the serotonin receptor due to their β-blocking activities |
| 65 | 147 | – | COCC(C)NCC(O)COc1cccc2ccccc12 (stereo not drawn) [CH(CH3)CH2 OCH3] | – | – |
| 683 | 73 | 9.4 | CC(C)CNCC(O)COc1cccc2ccccc12 (stereo not drawn) [CH2 CH(CH3)2] | – | – |
| 1270 | 180 | 7.1 | C#CC(C)NCC(O)COc1cccc2ccccc12 (stereo not drawn) [CH(CH3)CCH] | – | – |
| 398 | 38 | 10.5 | CC#CC(C)(C)NCC(O)COc1cccc2ccccc12 (stereo not drawn) [C(CH3)2 CCCH3] | – | – |
| 7 | 5 | 1.4 | OC(CNC1CCCC1)COc1ccccc1C1CCCC1 (stereo not drawn) [cyclopentyl] | – | – |
| 1050 | 53 | 20 | CCC(C)(C)NCC(O)COc1cccc2ccccc12 (stereo not drawn) [C(CH3)2 CH2 CH3] | – | – |
| 174 | 33.4 | 5.2 | CC1CCCCC1NCC(O)COc1cccc2ccccc12 (stereo not drawn) [(2-methylcyclohexyl)] | – | – |
| 313 | 63 | 4.8 | OC(CNCCc1ccccc1)COc1cccc2ccccc12 (stereo not drawn) [CH2 CH2 C6 H5] | – | – |
| 98 | 41 | 2.4 | CCCC(C)(C)NCC(O)COc1cccc2ccccc12 (stereo not drawn) [C(CH3)2 CH2 CH2 CH3] | – | – |
| 124 | 100 | 1.24 | C=CC(C)(C)NCC(O)COc1cccc2ccccc12 (stereo not drawn) [C(CH3)2 CHCH2] | – | – |
| 622 | 15.4 | 40.4 | OC(CNC1CCCCC1)COc1cccc2ccccc12 (stereo not drawn) [(cyclohexyl)] | – | – |
| 104 | 73 | 1.4 | CCC(C)NCC(O)COc1cccc2ccccc12 (stereo not drawn) [CH(CH3)CH2 CH3] | – | – |
| 442 | 34.1 | 13 | OC(CN[C@H]1CC[C@@H](c2ccccc2)CC1)COc1cccc2ccccc12 (stereo partly drawn) [(Z-4-phenylcyclohexyl)] | – | – |
| 185 | 23.4 | 7.9 | CCCCCNCC(O)COc1cccc2ccccc12 (stereo not drawn) [CH2 CH2 CH2 CH2 CH3] | – | – |
| 1360 | 88 | 15.4 | C#CC(C)(C)NCC(O)COc1cccc2ccccc12 (stereo not drawn) [C(CH3)2 CCH] | – | – |

| SMILES | IC50 (β-adrenergic receptors) [nM] | IC50 [1, 3] [nM] | Ratio Beta IC50 / 5-HT1A IC50 [1] | IC50 [1] [nM] | antagonism of 5-HT1 receptors relative to β-block (in words) [2] |
| --- | --- | --- | --- | --- | --- |
| O=C(O)C(=O)O.OC(CNC1CCCCCC1)COc1ccccc1C1CCCC1 (stereo not drawn) [cycloheptyl, 1-(2-Cyclopentylphenoxy)-3-(cycloheptylamino) 2-propanol ethanedioate] | 48 | – | 16 | 3 | – |
| O=C(O)/C=C\C(=O)O.OC(CNC1CCCCC1)COc1cccc2[nH]ccc12 (stereo not drawn) [Cyclohexyl, 1-(4-Indolyloxy)-3-(cyclohexylamino)-2-propanol maleate] | 56 | 10.3 | 5.4 | – | – |
| O=C(O)C(=O)O.OC(CNC1CCCCCCC1)COc1cccc2ccccc12 (stereo not drawn) [(cyclooctyl), 1-(1-Naphthalenoxy)-3-(cyclooctylamino) -2-propanol ethanedioate] | 1000 | – | 22.2 | 45 | – |
| CCCC(C)(C)NCC(O)COc1ccccc1C1CCCC1.O=C(O)C(=O)O (stereo not drawn) [CH(CH3)2 CH2 CH2 CH3, 1-(2-Cyclopentylphenoxy)-3-(1,1-dimethylbutylamino) -2-propanol ethanedioate] | 16 | – | 2.5 | 6.5 | – |
| O=C(O)C(=O)O.OC(CNC1CCCCCCC1)COc1ccccc1C1CCCC1 (stereo not drawn) [cyclooctyl, 1-(2-Cyclopentylphenoxy) -3-(cyclooctylamino) 2-propanol ethanedioate] | > 1000 | – | > 200 | 5 | – |
| O=C(O)C(=O)O.OC(CNC1CCCCCC1)COc1cccc2ccccc12 (stereo not drawn) [(cycloheptyl), 1-(1-Naphthalenoxy) -3-(cycloheptylamino) -2-propanol ethanedioate] | 2280 | – | 99 | 23 | – |
